Patent US7820714B2, “Siglec inhibitors” (priority 2001, dated 2010)

Assays:
Siglec-1 (sialoadhesin) = Siglec-1 (sialoadhesin) (Mus musculus, UniProt Q62230); assay: Hapten inhibition assay, Siglec-1 (sialoadhesin); type: binding; details: for Siglec-1 (sialoadhesin) rIP: quotient IC50 reference compound / IC50 compound
Siglec-2 (human CD22) = biological target: T1, Siglec-2 (human CD22) (Homo sapiens, UniProt P20273); assay: Hapten inhibition assay, Siglec-2 (human CD22); type: binding; details: for Siglec-2 (human CD22) rIP: quotient IC50 reference compound / IC50 compound; for IC50: unit inferred
T1 sequence (P20273 20-138 limits assumed): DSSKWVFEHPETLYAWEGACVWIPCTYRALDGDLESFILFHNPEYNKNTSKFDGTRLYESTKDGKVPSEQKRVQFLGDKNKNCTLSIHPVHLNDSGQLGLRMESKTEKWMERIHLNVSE
Description: Preferably, the inhibition can be determined by a Hapten inhibition test. […] After overnight incubation at 4° C. the unbound complexes are removed by washing the cells and the bound radioactivity is determined. From the data obtained in this way, the concentrations are found which lead to 50% inhibition of the binding (IC50 values) (5, 6). Specially preferred during the Hapten inhibition test was 10 μl of the complex solution with an activity of 10^3 Bq ^125I mixed with the same volume of a solution of the substance to be investigated (concentrated three times) and incubated at 4° C. for one hour. Then followed the addition of 10 μl of a suspension of target cells, preferably 0.25 to 0.5% of human erythrocytes and incubation overnight at 4° C. The unbound radioactivity is removed by washing the cells five times with 200 μl of washing buffer, preferably phosphate-buffered saline with 0.1% (W/V) bovine serum albumin, and the cell-bound activity is determined with a γ-counter. […] The inhibition is determined in that the value without inhibitor is set to 0% and that with the sialidase-treated cells is set equal to 100%.
The IC50 value is the siglec inhibitor concentration which leads to 50% inhibition in the binding in the Hapten inhibition assay.

Siglec-2 (murine CD22) = biological target: T2, Siglec-2 (murine CD22) (Mus musculus, UniProt P35329); assay: Hapten inhibition assay, Siglec-2 (murine CD22); type: binding; details: for Siglec-2 (murine CD22) rIP: quotient IC50 reference compound / IC50 compound
T2 sequence (P35329 22-148 limits assumed): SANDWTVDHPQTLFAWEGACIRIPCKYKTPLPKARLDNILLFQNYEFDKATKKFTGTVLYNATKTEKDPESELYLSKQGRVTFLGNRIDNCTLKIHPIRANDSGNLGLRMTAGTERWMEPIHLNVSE

Siglec-4a (MAG) = biological target: T3, Siglec-4a (MAG) (UniProt P20917); assay: Hapten inhibition assay, Siglec-4a (MAG); details: for Siglec-4a (MAG) rIP: quotient IC50 reference compound / IC50 compound; for IC50: read-out: Siglec-4a (MAG) IC50, unit inferred; for binds stronger to siglec-4a than the reference compound: relative to 2-alpha-methyl-5-N-acetyl-neuraminic acid
T3 sequence (P20917 1-627): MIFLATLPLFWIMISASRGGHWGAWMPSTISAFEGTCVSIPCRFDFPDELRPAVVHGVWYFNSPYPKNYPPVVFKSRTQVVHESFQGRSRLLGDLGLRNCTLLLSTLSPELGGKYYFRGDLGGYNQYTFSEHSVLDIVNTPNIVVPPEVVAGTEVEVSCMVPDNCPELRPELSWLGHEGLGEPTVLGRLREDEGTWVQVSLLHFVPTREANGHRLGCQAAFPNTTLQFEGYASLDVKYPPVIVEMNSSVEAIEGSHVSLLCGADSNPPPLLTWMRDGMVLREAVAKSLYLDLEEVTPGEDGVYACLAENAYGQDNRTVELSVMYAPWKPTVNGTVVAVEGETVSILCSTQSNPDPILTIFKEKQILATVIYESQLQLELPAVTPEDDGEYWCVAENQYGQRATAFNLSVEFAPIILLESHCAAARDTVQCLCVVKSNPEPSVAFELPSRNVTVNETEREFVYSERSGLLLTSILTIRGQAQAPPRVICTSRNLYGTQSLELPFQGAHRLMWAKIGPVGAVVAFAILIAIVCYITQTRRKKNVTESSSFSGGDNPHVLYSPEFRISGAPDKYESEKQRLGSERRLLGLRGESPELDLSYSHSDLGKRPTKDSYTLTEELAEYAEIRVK
Description: Preferably, the inhibition can be determined by a Hapten inhibition test. […] After overnight incubation at 4° C. the unbound complexes are removed by washing the cells and the bound radioactivity is determined. […] Then followed the addition of 10 μl of a suspension of target cells, preferably 0.25 to 0.5% of human erythrocytes and incubation overnight at 4° C. The unbound radioactivity is removed by washing the cells five times with 200 μl of washing buffer, preferably phosphate-buffered saline with 0.1% (W/V) bovine serum albumin, and the cell-bound activity is determined with a γ-counter. […] The inhibition is determined in that the value without inhibitor is set to 0% and that with the sialidase-treated cells is set equal to 100%.

[1] = at the concentration of the IC50 bound, meaning not defined in the patent

Siglec-1 (sialoadhesin), sequence (Q62230 20-136 limits assumed): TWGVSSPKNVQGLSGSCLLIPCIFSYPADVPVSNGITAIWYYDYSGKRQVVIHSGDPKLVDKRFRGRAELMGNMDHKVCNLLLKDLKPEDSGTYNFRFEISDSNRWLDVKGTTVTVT

Row | Structure (SMILES) | Siglec-1 (sialoadhesin) rIP (Siglec-1 (sialoadhesin)) | IC50 (Siglec-1 (sialoadhesin); unit inferred) | Siglec-2 (human CD22) rIP (Siglec-2 (human CD22)) | IC50 (Siglec-2 (human CD22)) | Siglec-2 (murine CD22) rIP (Siglec-2 (murine CD22)) | IC50 (Siglec-2 (murine CD22); unit inferred) | Siglec-4a (MAG) rIP (Siglec-4a (MAG)) | IC50 (Siglec-4a (MAG)) | binds stronger to siglec-4a than the reference compound (Siglec-4a (MAG)) | Siglec-1 (sialoadhesin) percentage in parentheses below the IC50 bound (Siglec-1 (sialoadhesin); [1]) | IC50 (Siglec-1 (sialoadhesin); bounds given in mM) | Siglec-2 (murine CD22) percentage in parentheses below the IC50 bound (Siglec-2 (murine CD22); [1]) | IC50 (Siglec-2 (murine CD22); bounds given in mM)
1 | CO[C@]1(C(=O)O)C[C@H](O)[C@@H](NC(C)=O)[C@H]([C@H](O)[C@H](O)CNC(=O)c2ccccc2)O1 [Methyl-α-9-N-benzoyl-amino-9-desoxy-Neu5Ac] | 1.8 | 0.539 mM | 5.7 | 290 µM | 3.7 | 1.09 mM | 704 | 7 µM | approximately 704 times | – | – | – | –
2 | CO[C@]1(C(=O)O)C[C@H](O)[C@@H](NC(C)=O)[C@H]([C@H](O)[C@H](O)CNC(=O)c2ccc(NC(C)=O)cc2)O1 [Methyl-α-9-N-(acetamidobenzoyl)-amino-9-desoxy-Neu5Ac] | 3.0 | 0.295 mM | 2.4 | 580 µM | – | 1.03 mM | 77 | 62 µM | – | – | – | – | –
3 | CO[C@]1(C(=O)O)C[C@H](O)[C@@H](NC(C)=O)[C@H]([C@H](O)[C@H](O)CNC(=O)c2ccc([N+](=O)[O-])cc2[N+](=O)[O-])O1 [Methyl-α-9-N-(2,4-dinitrobenzoyl)-amino-9-desoxy-Neu5Ac] | 0.3 | 0.733 mM | 7.7 | 287 µM | 7.9 | 0.593 mM | 18 | 205 µM | – | – | – | – | –
4 | CO[C@]1(C(=O)O)C[C@H](O)[C@@H](NC(C)=O)[C@H]([C@H](O)[C@H](O)CNC(=O)c2cccc3ccccc23)O1 [Methyl-α-9-N-(naphthyl-1-carbonyl)-amino-9-desoxy-Neu5Ac] | 0.3 | 3 mM | 27 | 37 µM | 64 | 0.092 mM | 84 | 56 µM | – | – | – | – | –
5 | COC1(C(=O)O)CC(O)C(NC(C)=O)C(C(O)C(O)CNC(=O)c2ccc3ccccc3c2)O1 (stereo not drawn) [Methyl-α-9-N-(naphthyl-2-carbonyl)-amino-9-desoxy-Neu5Ac] | 12 | 0.078 mM | 167 | 6 µM | 18 | 0.27 mM | 236 | 20 µM | approx. 236 times | – | – | – | –
6 | CO[C@]1(C(=O)O)C[C@H](O)[C@@H](NC(C)=O)[C@H]([C@H](O)[C@H](O)CNC(=O)c2cccnc2)O1 [Methyl-α-9-N-(pyridine-3-carbonyl)-amino-9-desoxy-Neu5Ac] | 0.5 | – | 2.3 | 445 µM | 14 | 0.335 mM | 170 | 25 µM | – | – | – | – | –
7 | COC1(C(=O)O)CC(O)C(NC(C)=O)C(C(O)C(O)CNC(=O)c2ccc3ccccc3n2)O1 (stereo not drawn) [Methyl-α-9-N-(chinaldine-2-carbonyl)-amino-9-desoxy-Neu5Ac] | <<0.2 | – | – | 41 µM | – | – | 54 | 87 µM | – | (100%) | > 2.5 mM | (100%) | > 10 mM
8 | CO[C@]1(C(=O)O)C[C@H](O)[C@@H](NC(C)=O)[C@H]([C@H](O)[C@H](O)CNC(=O)Cc2ccc(-c3ccccc3)cc2)O1 [Methyl-α-9-N-(biphenyl-4-acetyl)-amino-9-desoxy-Neu5Ac] | 0.3 | 3 mM | 29 | 35 µM | 48 | 0.123 mM | – | – | – | – | – | – | –
